For assay [1], the system named is human cancer cell lines (A549, MDA-MB-468, PC-3, Bx-PC3). In words: MTT anti-cancer assay, the other cancer cell lines of the panel. The class given is cell-based. The following applies: at 10 μM, 6 days, cell lines other than MDA-MB-468 (A549, PC-3, Bx-PC3). The text has this: The anti-cancer activity of the compounds of the invention herein have been tested in in vitro assays using a microculture assay with 3-(4,5-dimethylthiazol-2-yl)-2,5-diphenyltetrazolium bromide (“MTT”) a test well known to those skilled in the art. This assay has an advantage over in vivo assay in that results are obtained within a week as opposed to several months. The assay can be carried out in 96-well microtiter plates. The MTT assay is based on the production of a dark blue formazan product by dehydrogenase in the mitochondria of live tumor cells after exposure to drug for 6 days [M. C. […] Thus, only live cells are stained and can be measured at 595 nm. […]
Treatment: Before commencing drug treatment, cells were replenished with media containing 0.5% FCS. […] As an end point, the amount of surviving cells (Live cells) was measured using a standard […] assay (MTT based), and calculated as percentage of cells treated with vehicle (DMSO) alone (% control).
MTT assay: The assay is based on the cleavage of the yellow tetrazolium salt MTT to purple formazan crystals by dehydrogenase activity in active mitochondria. […] The formazan crystals formed are solubilized and the resulting colored solution is quantified using a scanning multiwell spectrophotometer. […]
On the technique in general: Tetrazolium dyes change colour on reduction, which living cells bring about.

The nature of assay [2]: Oral treatment of hypercholesterolemia in Sprague Dawley rats on a high cholesterol atherogenic diet (serum cholesterols). The class given is in vivo. The following applies: 20 mg/kg once daily by oral gavage for five days. The procedure:
Six week-old male Sprague Dawley rats (HSD, Harlan) were housed in a fixed 12–12-hr artificial light-dark cycle, and maintained on a high cholesterol, atherogenic diet ad libitum (# C13002, Research Diets, New Jersey).
Animals were maintained on this diet throughout the course of the study.
Following six days of maintenance on the high cholesterol diet, the animals were bled from the tail vein (100–200 μL of whole blood) and serum levels of total cholesterol were measured in duplicate (Infinity Cholesterol Kit; Sigma, St. Louis, Mo.). Based on these initial measures, animals were sorted into groups with approximately the same average serum cholesterol levels. Once sorted, the animals were housed three per cage and maintained on the high cholesterol diet ad libitum.
Treatment groups (n=6/group): • 1) High cholesterol fed control (sesame oil) • 2) Compound 7 (20 mg/kg; once daily)
Compound 7 was mixed in sesame oil, and administered to animals in a volume of 3 mL/kg/dose. Compound 7 was administered by oral gavage daily for five consecutive days.
To monitor the effect of Compound 7, animals were bled from the tail vein five days after commencement of oral treatment. Serum cholesterols were measured in duplicate. The blood is kept at room temperature to allow coagulation, after which the serum is separated and assayed for total cholesterol (see FIG. 1), high density lipoprotein cholesterol (see FIG. 2) and low density lipoprotein cholesterol levels (see FIG. 3). […] Similarly, Compound 7 reduced LDL cholesterol levels compared to controls (ANOVA, Fisher's Least significant difference test, p≦0.01). Finally, Compound 7 increased HDL cholesterol levels compared to controls (ANOVA, Fisher's Least significant difference test, p<0.01).

In assay [1], `CN(C)c1cc2c(cc1-c1ccc3cc(/C=C4\SC(=S)N(CC(=O)O)C4=O)ccc3c1)C(C)(C)CCC2(C)C` [Compound 7, {5-[6-(3-Dimethylamino-5,5,8,8-tetramethyl-5,6,7,8-tetrahydro-naphthalen-2-yl)-naphthalen-2-ylmethylene]-4-oxo-2-thioxo-thiazolidin-3-yl}-acetic acid] had a cells killed of at most 50%. In assay [2] (p<0.01), the “HDL cholesterol levels compared to controls” value is reported as “increased”. In assay [2] (p≦0.01), the “LDL cholesterol levels compared to controls” value was “reduced” and the “total serum cholesterol compared to control animals” value is reported as “significantly reduced”.

The record behind these values is patent US7071218B2, “N-substituted heterocycles for the treatment of hypercholesteremia, dyslipidemia and other metabolic disorders; cancer, and other diseases” (Incyte San Diego Incorporated, priority 2001, dated 2006).
